Experimental data published in paper PMC11151858 (RSC Chemical Biology, 2024).

Tested on: wild-type progesterone receptor (pSG5-Gal4-DBD-PR) and its mutants
Assay type: cell-based
Conditions: not given

Row | Structure (SMILES) | activity in PR mutants as compared to wild-type PR
1 | C[C@@H]1C[C@H]2[C@@H]3CCC4=CC(=O)C=C[C@]4(C)[C@@]3(F)[C@@H](O)C[C@]2(C)[C@@]1(O)C(=O)CO [DEX, Dexamethasone] | lowered below DMSO control by most mutations
2 | CC(=O)[C@H]1CC[C@H]2[C@@H]3CCC4=CC(=O)CC[C@]4(C)[C@H]3CC[C@]12C [STR, Progesterone] | lowered in all mutants

Same assay, conditions: HeLa, Gal4-DBD-PR LBD mutants; ligand 10 μM

Row | Structure (SMILES) | activity in PR mutants as compared to wild-type PR, high ligand concentration
3 | C[C@]12CCC(=O)C=C1CC[C@@H]1[C@@H]2[C@@H](O)C[C@]2(C=O)[C@@H](C(=O)CO)CC[C@@H]12 [AS4, Aldosterone] | reduced activity
4 | C[C@]12CCC(=O)C[C@@H]1CC[C@@H]1[C@@H]2CC[C@]2(C)[C@@H](O)CC[C@@H]12 [DHT, Dihydrotestosterone] | reduced activity
5 | C[C@]12CCC(=O)C=C1CC[C@@H]1[C@@H]2[C@@H](O)C[C@@]2(C)[C@H]1CC[C@]2(O)C(=O)CO [HCY, Cortisol] | reduced activity
6 | C[C@]12C=CC(=O)C=C1CC[C@@H]1[C@@H]2C(=O)C[C@@]2(C)[C@H]1CC[C@]2(O)C(=O)CO [PDN, Prednisone] | additional reduction
